From patent US9334246B2, “Substituted triazines for malaria treatment and chemoprophylaxis” (The United States of America, as represented by the …, priority 2013, dated 2016)
Like-named read-outs stand apart in the source and are kept apart here.

Assays:
[1] = system: P. falciparum D6; assay: Malaria SYBR Green Fluorescence Assay, D6 strain; format: cell-based, Plasmodium falciparum; conditions: for D6: SYBR Green Assay
[2] = system: P. falciparum W2; assay: Malaria SYBR Green Fluorescence Assay, W2 strain; format: cell-based, Plasmodium falciparum; conditions: for W2: SYBR Green Assay
[3] = system: P. falciparum C235; assay: Malaria SYBR Green Fluorescence Assay, C235 strain; format: cell-based, Plasmodium falciparum; conditions: for C235: SYBR Green Assay
[4] = system: P. berghei; assay: Thompson Test, in vivo mouse malaria assay; design: species or system mice (ICR strain)
[5] = system: P. cynomolgi
[6] = molecular target: T1, hERG potassium ion channel (Homo sapiens, UniProt Q12809); assay: hERG patch clamp assay (% inhibition at 10 μM)
T1 sequence (Q12809 whole entry): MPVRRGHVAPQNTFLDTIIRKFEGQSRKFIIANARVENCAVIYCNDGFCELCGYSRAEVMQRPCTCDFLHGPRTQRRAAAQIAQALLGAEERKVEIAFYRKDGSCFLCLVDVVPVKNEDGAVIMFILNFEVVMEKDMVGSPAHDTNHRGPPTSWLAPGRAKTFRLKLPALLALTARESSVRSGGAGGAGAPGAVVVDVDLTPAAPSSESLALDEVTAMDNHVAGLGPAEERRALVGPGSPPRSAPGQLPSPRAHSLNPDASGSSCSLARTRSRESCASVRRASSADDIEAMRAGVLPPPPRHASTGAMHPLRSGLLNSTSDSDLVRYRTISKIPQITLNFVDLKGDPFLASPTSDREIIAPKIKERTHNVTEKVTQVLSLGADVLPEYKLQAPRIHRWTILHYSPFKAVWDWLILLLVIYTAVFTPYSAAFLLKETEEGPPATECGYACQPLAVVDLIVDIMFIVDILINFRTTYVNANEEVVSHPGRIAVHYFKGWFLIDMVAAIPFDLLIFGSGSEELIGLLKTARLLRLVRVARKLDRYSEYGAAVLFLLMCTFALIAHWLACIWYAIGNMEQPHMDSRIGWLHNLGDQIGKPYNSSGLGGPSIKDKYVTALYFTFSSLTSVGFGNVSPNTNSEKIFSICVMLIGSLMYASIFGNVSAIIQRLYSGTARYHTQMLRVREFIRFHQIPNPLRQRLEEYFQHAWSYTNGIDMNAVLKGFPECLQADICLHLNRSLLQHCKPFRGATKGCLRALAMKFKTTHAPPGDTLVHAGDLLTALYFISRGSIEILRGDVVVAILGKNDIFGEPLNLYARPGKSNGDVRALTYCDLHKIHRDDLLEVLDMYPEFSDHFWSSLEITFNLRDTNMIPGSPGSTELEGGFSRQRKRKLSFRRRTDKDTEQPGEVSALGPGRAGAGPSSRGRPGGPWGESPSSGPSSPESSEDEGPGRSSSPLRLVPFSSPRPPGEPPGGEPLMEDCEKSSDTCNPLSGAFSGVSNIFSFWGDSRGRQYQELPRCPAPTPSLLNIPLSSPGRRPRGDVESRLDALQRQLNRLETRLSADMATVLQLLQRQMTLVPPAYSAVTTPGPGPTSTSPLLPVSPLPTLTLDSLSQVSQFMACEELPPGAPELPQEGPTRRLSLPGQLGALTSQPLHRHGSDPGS

[7] = system: drug resistant strains of P. falciparum; assay: in vitro profiling against different drug resistant strains of P. falciparum; format: cell-based, Plasmodium falciparum
[8] = molecular target: T1, hERG potassium ion channel; conditions: 10 μM
[9] = in vivo
[10] = molecular target: hERG channel (Homo sapiens, UniProt Q12809)
Chain of hERG channel (Q12809 whole entry): as above

[11] = % inhibition at 10 μM, patch clamp
[12] = (160 × 3): 160 mg/kg for 3 days

Row | Compound | D6 [1] [ng/mL] | W2 [2] [ng/mL] | C235 [3] [ng/mL] | In vivo Results Thompson Assay (n/N Cures or Suppressive) ([4]; (80 × 3): 80 mg/kg for 3 days) | In vivo Results Thompson Assay (n/N Cures or Suppressive) ([4]; (40 × 3): 40 mg/kg for 3 days) | hERG [6, 11] [%] | further results
1 | CC(C)(C)c1ccc(cc1)c2nc(nc(n2)C(Cl)(Cl)Cl)N3CC4CC3CN4 [Compound 721] | 142 | 69 | 126 | (80 × 3) 2/5 Cures | – | – | Rhesus Results ([5]; 65 mg/kg once weekly): prophylaxis; Rhesus Results ([5]; 65 mg/kg/day × 7 days): malaria cures; hERG ([6]; hERG activity as % inhibition): 2%
2 | CCC(N)(CC)CNc1nc(-c2ccc(S(C)(=O)=O)cc2)nc(C(Cl)(Cl)Cl)n1 [Compound 365] | – | – | – | (80 × 3) Suppressive | – | – | D6 (SYBR Green Assay IC50) [1]: 5 ng/mL; W2 (SYBR Green Assay IC50) [2]: 5 ng/mL; C235 (SYBR Green Assay IC50) [3]: 10 ng/mL; hERG (% inhibition) ([6]; 10 μM): 69%
3 | CC(C)(N)CNc1nc(-c2ccc(C(Cl)(Cl)Cl)cc2)nc(C(Cl)(Cl)Cl)n1 [Compound 55] | 46 | 30 | 89 | 5/5 | 3/5 | 17 | Rhesus Results ([5]; 65 mg/kg once weekly): prophylaxis; Rhesus Results ([5]; 65 mg/kg/day × 7 days): malaria cures
4 | NC1CCN(CC1)c2nc(nc(n2)C(Cl)(Cl)Cl)c3ccc(cc3)C(Cl)(Cl)Cl [Compound 743] | 22 | 16 | 14 | (80 × 3) 3/5 Cures; (40 × 3) | Suppressive | – | hERG ([6]; hERG activity as % inhibition): 15%
5 | CN1CCCN(c2nc(-c3ccc(Cl)c(Cl)c3)nc(C(Cl)(Cl)Cl)n2)CC1 [Compound 113] | 33 | 23 | 35 | Suppressive | – | 64 | In vivo Results Thompson Assay (n/N Cures or Suppressive) [4, 12]: 4/5
6 | COc1ccc(-c2nc(NC3CC(C)(C)NC(C)(C)C3)nc(C(Cl)(Cl)Cl)n2)cc1OC [Compound 328] | 64 | 40 | 84 | (80 × 3) 2/5 Cures | – | 31 | –
7 | Cc1ccc(-c2nc(N3CCCNCC3)nc(C(Cl)(Cl)Cl)n2)cc1 [Compound 102] | 58 | 44 | 48 | (80 × 3) Suppressive | – | 47 | –
8 | Cc1ccc(cc1)c2nc(nc(n2)C(Cl)(Cl)Cl)N3CC4CC3CN4 [Compound 719] | 96 | 68 | 114 | (80 × 3) Suppressive; (160 × 3) | – | – | In vivo Results Thompson Assay (n/N Cures or Suppressive) [4, 12]: Suppressive; hERG ([6]; hERG activity as % inhibition): 10%
9 | OCCN1CCN(c2nc(-c3ccc(C(Cl)(Cl)Cl)cc3)nc(C(Cl)(Cl)Cl)n2)CC1 [Compound 119] | 29 | 12 | 46 | 4/5 | 1/5 | 18 | –
10 | CC(CNc1nc(Nc2ccc(Cl)c(Cl)c2)nc(n1)C(Cl)(Cl)Cl)N(C)C [Compound 641] | – | – | – | (80 × 3) 5/5 Cures | 2/5 | – | D6 (SYBR Green Assay IC50) [1]: 15 ng/mL; W2 (SYBR Green Assay IC50) [2]: 5 ng/mL; C235 (SYBR Green Assay IC50) [3]: 13 ng/mL; In vivo Results Thompson Assay (n/N Cures) ([4]; (160 × 1): single 160 mg/kg PO dose): 5/5; in vitro potency [7]: excellent in vitro potency; hERG (% inhibition) [8]: 117%; Rhesus Results ([5]; 65 mg/kg once weekly): prophylaxis; Rhesus Results ([5]; 65 mg/kg/day × 7 days): malaria cures; malaria parasitemia, prophylactic drug, rhesus P. cynomolgi relapsing model ([5]; dosed once weekly (65 mg, PO)): prevented malaria parasitemia; tolerability ([5]; rhesus monkey, in vivo, 316 mg/kg): well tolerated; mouse half-life ([9]; po, 80 mg/kg): 8 h; Cmax ([9]; mouse): > 600 nM; IC50 [10]: 600 nM
11 | CS(=O)(=O)c1ccc(-c2nc(N3CCCNCC3)nc(C(Cl)(Cl)Cl)n2)cc1 [Compound 96] | 70 | 51 | 96 | (80 × 3) Suppressive | – | 65 | –
12 | CC(C)(N)CNc1nc(-c2cccc(C(F)(F)F)c2)nc(C(Cl)(Cl)Cl)n1 [Compound 214] | 19 | 11 | 10 | 5/5 | 2/5 | 42 | –
